Test results from patent publication US20230365563A1, “QUINAZOLINE COMPOUND AND APPLICATION THEREOF” (SHANGHAI PHARMACEUTICALS HOLDING CO., LTD., priority 2020, published 2023).
Counter-ions that a name gives are not always drawn.

Tests used:
[1] = target: T1, KRAS_WT and SOS1 (Homo sapiens, UniProt P01116); experiment: Inhibition of KRAS_WT/SOS1 binding (Cisbio binding kit, 665/615 ratio), Effect Embodiment C; conditions: read-out: GTP-KRAS-WT:SOS1 IC50
T1 construct: purchased
Procedure: The inhibitory ability of small molecule compounds on the binding activity of KRAS_WT and SOS1 was examined by a drug screening system based on the combination of KRAS_WT and SOS1.
(§1) Similarly, the first dilution point of the compound to be tested was its storage solution, and the solution was 3-fold diluted, with 11+0 points of dilution. Echo was used to transfer 0.2 μL gradient diluted solution of the compounds into a 384-well plate, with 2 duplicated wells for each compound, and the final concentration of DMSO was 1%. The solution was centrifuged for 1 min at 1000 rpm/min.
(§2) IC50 of the compounds was fitted by Graphpad Prism 8 nonlinear regression equation: […]
(§3) The IC50 (half inhibitory concentration) of the compound was obtained by using the following nonlinear fitting formula: […]

[2] = target: T2, KRAS_G12D and cRAF (Homo sapiens, UniProt P01116, G12D); experiment: Inhibition of KRAS_G12D/cRAF binding (Cisbio binding kit, 665/615 ratio), Effect Embodiment B; conditions: read-out: GTP-KRAS-G12D:CRAF IC50
T2 construct: purchased
T2 sequence (P01116 1-188 isoform P01116-2 G12D): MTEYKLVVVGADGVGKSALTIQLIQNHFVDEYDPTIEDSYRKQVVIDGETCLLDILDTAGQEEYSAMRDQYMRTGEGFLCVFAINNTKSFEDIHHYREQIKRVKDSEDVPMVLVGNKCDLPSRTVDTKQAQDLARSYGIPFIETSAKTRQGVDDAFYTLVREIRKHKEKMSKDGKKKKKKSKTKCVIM
Procedure: as §1, §2, §3

[3] = target: T3, KRAS-G12D and SOS1 (Homo sapiens, UniProt P01116, G12D); experiment: Inhibition of KRAS-G12D/SOS1 binding (Cisbio binding kit, 665/615 ratio), Effect Embodiment A; conditions: read-out: GTP-KRAS-G12D:SOS1 IC50
T3 construct: purchased
T3 sequence (P01116 1-188 isoform P01116-2 G12D): as above
Method in brief: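 Duplicate wells received an eleven-point, threefold compound titration whose top point was the stock solution; final DMSO 1%.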

T1 sequence (P01116 1-188 isoform P01116-2): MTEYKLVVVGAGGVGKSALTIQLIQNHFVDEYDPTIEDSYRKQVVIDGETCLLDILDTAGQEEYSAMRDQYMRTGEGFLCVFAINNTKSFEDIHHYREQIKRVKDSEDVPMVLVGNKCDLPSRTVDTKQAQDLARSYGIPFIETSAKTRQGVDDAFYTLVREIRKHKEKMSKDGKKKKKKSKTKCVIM

## CC(C)N(C)CCCOc1nc(N2CC3CCC(C2)N3)c2cc(Cl)c(-c3cc(O)cc4ccccc34)c(F)c2n1 (single isomer, unassigned) [Compound 50a, 4-((S or R)-4-((1R,5S)-3,8-diazabicyclo[3.2.1]octan-3-yl)-6-chloro-8-fluoro-2-(3-(isopropyl(methyl)amino)propoxy)quinazolin-7-yl)naphthalen-2-ol trifluoroacetate]
[1]
  IC50: 1.69 µM
[2]
  IC50: 0.155 µM
[3]
  IC50: 0.0443 µM

## Oc1cc(-c2c(Cl)cc3c(N4CC5CCC(C4)N5)nc(OCC4(CN5C6CCC5COC6)COC4)nc3c2F)c2ccccc2c1 (single isomer, unassigned) [Compound 204, 4-((7S or 7R)-2-((3-(3-oxa-8-azabicyclo[3.2.1]octan-8-ylmethyl)oxa-3-yl)methoxy)-4-((1R,5S)-3,8-diazabicyclo[3.2.1]octan-3-yl)-6-chloro-8-fluoroquinazolin-7-yl)naphthalen-2-ol ditrifluoroacetate]
[1]
  IC50: 4.25 µM
[2]
  IC50: 0.121 µM
[3]
  IC50: 0.0774 µM

## CC(C)(COc1nc(N2CC3CCC(C2)N3)c2cc(Cl)c(-c3cc(O)cc4ccccc34)c(F)c2n1)CN1CCCC1 (single isomer, unassigned) [Compound 102, 4-((S or R)-4-((1R,5S)-3,8-diazabicyclo[3.2.1]octan-3-yl)-6-chloro-2-(2,2-dimethyl-3-(pyrrolidin-1-yl)propoxy)-8-fluoroquinazolin-7-yl)naphthalen-2-ol dihydrochloride]
[1]
  IC50: 1.1 µM
[2]
  IC50: 0.039 µM
[3]
  IC50: 0.0198 µM

## CN1CCN(c2nc(N3CC4CCC(C3)N4)c3cc(Cl)c(-c4cc(O)cc5ccccc45)c(F)c3n2)CC1 (single isomer, unassigned) [Compound 52a, 4-((S or R)-4-((1R,5S)-3,8-diazabicyclo[3.2.1]octan-3-yl)-6-chloro-8-fluoro-2-(4-methylpiperazin-1-yl)quinazolin-7-yl)naphthalen-2-ol]
[1]
  IC50: 28.9 µM
[2]
  IC50: 9.21 µM
[3]
  IC50: 1.14 µM

## CN(C)CCCCOc1nc(N2CC3CCC(C2)N3)c2cc(Cl)c(-c3cc(O)cc4ccccc34)c(F)c2n1 (single isomer, unassigned) [Compound 60a, 4-((S or R)-4-((1R,5S)-3,8-diazabicyclo[3.2.1]octan-3-yl)-6-chloro-2-(4-(dimethylamino)butoxy)-8-fluoroquinazolin-7-yl)naphthalen-2-ol]
[1]
  IC50: 5.9 µM
[2]
  IC50: 0.357 µM
[3]
  IC50: 0.063 µM

## CN1CCC[C@H]1COc1nc(N2CCN(C(=O)CN)[C@@H](CC#N)C2)c2cc(Cl)c(-c3cc(O)cc4ccccc34)c(F)c2n1 (single isomer, unassigned) [Compound 155, 2-((S)-4-((S or R)-6-chloro-8-fluoro-7-(3-hydroxynaphthalen-1-yl)-2-((S)-1-methylpyrrolidine-2-yl)methoxy)quinazolin-4-yl)-1-glycylpiperazin-2-yl)acetonitrile ditrifluoroacetate]
[1]
  IC50: 0.243 µM
[2]
  IC50: 0.312 µM
[3]
  IC50: 0.0788 µM

## CN(C)C1CN(c2nc(N3C[C@@H]4CC[C@H]3CN4)c3cc(Cl)c(-c4cc(O)cc5ccccc45)c(F)c3n2)C1 (single isomer, unassigned) [Compound 4a, (R or S)-4-(4-((1S,4S)-2,5-diazabicyclo [2.2.2]octan-2-yl)-6-chloro-2-(3-(dimethylamino)azetidin-1-yl)-8-fluoro-quinazolin-7-yl)naphthalen-2-ol]
[1]
  IC50: 0.401 µM
[2]
  IC50: 0.213 µM
[3]
  IC50: 0.0369 µM

## C[C@@H]1CCCCN1CCOc1nc(N2CC3CCC(C2)N3)c2cc(Cl)c(-c3cc(O)cc4ccccc34)c(F)c2n1 (single isomer, unassigned) [Compound 269, (S or R)-4-(4-((1R,5S)-3,8-diazacyclo[3.2.1]octan-3-yl)-6-chloro-8-fluoro-2-(2-((R)-2-methylpiperidin-1-yl)ethoxy)quinazolin-7-yl)naphthalen-2-ol formate]
[1]
  IC50: 1.76 µM
[2]
  IC50: 0.339 µM
[3]
  IC50: 0.0679 µM

## Oc1cc(Cl)c(C2CC2)c(-c2c(Cl)cc3c(N4C[C@H]5CC[C@@H](C4)N5)nc(OCCCN4C5CCC4COC5)nc3c2F)c1 (single isomer, unassigned) [Compound 197a, 3-((7R or 7S)-2-(3-(3-oxa-8-azabicyclo[3.2.1]octan-8-yl)propoxy)-4-((1R,5S)-3,8-diazabicyclo[3.2.1]octan-3-yl)-6-chloro-8-fluoroquinazolin-7-yl)-5-chloro-4-cyclopropylphenol formate]
[1]
  IC50: 0.833 µM
[2]
  IC50: 0.0598 µM
[3]
  IC50: 0.0178 µM

## Oc1cc(-c2c(Cl)cc3c(N4CC5CCC(C4)N5)nc(OCCCN4CCC5(CCOC5)C4)nc3c2F)c2ccccc2c1 (single isomer, unassigned) [Compound 270, (4R or 4S)-4-(2-(3-(2-oxo-7-azaspiro[4.4]nonan-7-yl)propoxy)-4-(1R,5S)-3,8-diazacyclo[3.2.1]octan-3-yl)-6-chloro-8-fluoroquinazolin-7-yl)naphthalen-2-ol diformate]
[1]
  IC50: 1.21 µM
[2]
  IC50: 0.202 µM
[3]
  IC50: 0.0431 µM

## CO[C@@H](COc1nc(N2CC3CCC(C2)N3)c2cc(Cl)c(-c3cc(O)cc4ccccc34)c(F)c2n1)CN1C2CCCC1CC2 (single isomer, unassigned) [Compound 257, (4S or 4R)-4-(2-((2R)-3-(8-azabicyclo[3.2.1]octan-8-yl)-2-methoxypropoxy)-4-((1R,5S)-3,8-diazabicyclo[3.2.1]octan-3-yl)-6-chloro-8-fluoroquinazolin-7-yl)naphthalen-2-ol formate]
[1]
  IC50: > 10 µM
[2]
  IC50: 0.296 µM
[3]
  IC50: 0.0648 µM

## CN1CCC[C@H]1COc1nc(N2CC3CCC(C2)N3)c2cc(Cl)c(-c3cc(O)cc4ccccc34)c(F)c2n1 (single isomer, unassigned) [Compound 39a, (S or R)-4-(4-((1R,5S)-3,8-diazabicyclo[3.2.1]octan-3-yl)-6-chloro-8-fluoro-2-((S)-1-methylpyrrolidin-2-yl)methoxy)quinazolin-7-yl)naphthalen-2-ol]
[1]
  IC50: 0.342 µM
[2]
  IC50: 0.0262 µM
[3]
  IC50: 0.0277 µM

## Oc1cc(-c2c(Cl)cc3c(N4CC5CCC(C4)N5)nc(OCCCN4CC5CCC(C4)O5)nc3c2F)c2ccccc2c1 (single isomer, unassigned) [Compound 188, 4-((7R or S)-2-(3-(8-oxa-3-azabicyclo[3.2.1]octan-3-yl)propoxy)-4-((1R,5S)-3,8-diazabicyclo[3.2.1]octan-3-yl)-6-chloro-8-fluoroquinazolin-7-yl)naphthalen-2-ol formate]
[1]
  IC50: 1.02 µM
[2]
  IC50: 0.133 µM
[3]
  IC50: 0.0356 µM

## CCC(COc1nc(N2CC3CCC(C2)N3)c2cc(Cl)c(-c3cc(O)cc4ccccc34)c(F)c2n1)CN1C2CCC1COC2 (single isomer, unassigned) [Compound 201a, (4S or 4R)-4-(2-((2R or 2S)-2-(3-oxa-8-azabicyclo[3.2.1]octan-8-ylmethyl)butoxy)-4-((1R,5S)-3,8-diazabicyclo[3.2.1]octan-3-yl)-6-chloro-8-fluoroquinazolin-7-yl)naphthalen-2-ol formate]
[1]
  IC50: 1.04 µM
[2]
  IC50: 0.0232 µM
[3]
  IC50: 0.029 µM

## CO[C@H]1CCN(CCCOc2nc(N3CC4CCC(C3)N4)c3cc(Cl)c(-c4cc(O)cc5ccccc45)c(F)c3n2)[C@H](C)C1 (single isomer, unassigned) [Compound 258, 4-((S or R)-4-((1R,5S)-3,8-diazacyclo[3.2.1]octan-3-yl)-6-chloro-8-fluoro-2-(3-((2R,4S)-4-methoxy-2-methylpiperidin-1-yl)propoxy)quinazolin-7-yl)naphthalen-2-ol diformate]
[1]
  IC50: 6.13 µM
[2]
  IC50: 0.219 µM
[3]
  IC50: 0.0269 µM

## C[C@H](COc1nc(N2CC3CCC(C2)N3)c2cc(Cl)c(-c3cc(O)cc4ccccc34)c(F)c2n1)CN1C[C@@H](C)O[C@@H](C)C1 (single isomer, unassigned) [Compound 206, 4-((S or R)-4-((1R,5S)-3,8-diazabicyclo[3.2.1]octan-3-yl)-6-chloro-2-((S)-3-((2S,6R)-2,6-dimethylmorpholinyl)-2-methylpropoxy)-8-fluoroquinazolin-7-yl)naphthalen-2-ol diformate]
[1]
  IC50: 6.83 µM
[2]
  IC50: 0.134 µM
[3]
  IC50: 0.0461 µM

## C[C@@H]1C[C@@H](COc2nc(N3CC4CCC(C3)N4)c3cc(Cl)c(-c4cc(O)cc5ccccc45)c(F)c3n2)N(C)C1 (single isomer, unassigned) [Compound 171, (R or S)-4-(4-((1R,5S)-3,8-diazabicyclo[3.2.1]octan-3-yl)-6-chloro-2-((2S,4R)-1.4-dimethylpyrrolidin-2-yl)methoxy)-8-fluoroquinazolin-7-yl)naphthalen-2-ol dihydrochloride]
[1]
  IC50: 0.395 µM
[2]
  IC50: 0.0604 µM
[3]
  IC50: 0.0248 µM

## Cc1cc2c(N3CC4CCC(C3)N4)nc(OCCCN(C)C)nc2c(F)c1-c1cc(O)cc2ccccc12 (single isomer, unassigned) [Compound 149a, 4-((R or S)-4-((1R,5S)-3,8-diazabicyclo[3.2.1]octan-3-yl)-2-(3-(dimethylamino)propoxy)-8-fluoro-6-methylquinazolin-7-yl)naphthalen-2-ol hydrochloride]
[1]
  IC50: 0.854 µM
[2]
  IC50: 0.0969 µM
[3]
  IC50: 0.0396 µM
